The IC50 is the concentration needed to halve the response being measured.

Series [1] deals with human ether a go-go related gene (hERG) K+ channel (Homo sapiens (Human), UniProt Q12809). Nature of the series: hERG assay, IonWorks patch clamp electrophysiology. The note with it: Chinese Hamster Lung cell line stably expressing hERG, maximum assay concentration 11 uM. In kind it is cell-based. Here is the method: Compounds of the invention were tested for inhibition of the human ether a go-go related gene (hERG) K^+ channel using IonWorks patch clamp electrophysiology. 8 Point concentration-response curves were generated on two occasions using 3-fold serial dilutions from the maximum assay concentration (11 uM). Electrophysiological recordings were made from a Chinese Hamster Lung cell line stably expressing the full length hERG channel. Single cell ion currents were measured in the perforated patch clamp configuration (100 ug/mL amphoterocin) at room temperature using an IonWorks Quattro instrument. The internal solution contained 140 mM KCl, 1 mM MgCl2, 1 mM EGTA and 20 mM HEPES and was buffered to pH 7.3. The external solution contained 138 mM NaCl, 2.7 mM KCl, 0.9 mM CaCl2, 0.5 mM MgCl2, 8 mM Na2HPO4 and 1.5 mM KH2PO4, and was buffered to pH 7.3. […] This sequence was repeated 5 times at a frequency of 0.25 Hz. Currents were measured from the tail step at the 5th pulse, and referenced to the holding current. Compounds were incubated for 6-7 min prior to a second measurement of the hERG signal using an identical pulse train. A minimum of 17 cells were required for each plC50 curve fit. A control compound (quinidine) was used (see Table 20 below).
human ether a go-go related gene (hERG) K+ channel, sequence (Q12809 whole entry): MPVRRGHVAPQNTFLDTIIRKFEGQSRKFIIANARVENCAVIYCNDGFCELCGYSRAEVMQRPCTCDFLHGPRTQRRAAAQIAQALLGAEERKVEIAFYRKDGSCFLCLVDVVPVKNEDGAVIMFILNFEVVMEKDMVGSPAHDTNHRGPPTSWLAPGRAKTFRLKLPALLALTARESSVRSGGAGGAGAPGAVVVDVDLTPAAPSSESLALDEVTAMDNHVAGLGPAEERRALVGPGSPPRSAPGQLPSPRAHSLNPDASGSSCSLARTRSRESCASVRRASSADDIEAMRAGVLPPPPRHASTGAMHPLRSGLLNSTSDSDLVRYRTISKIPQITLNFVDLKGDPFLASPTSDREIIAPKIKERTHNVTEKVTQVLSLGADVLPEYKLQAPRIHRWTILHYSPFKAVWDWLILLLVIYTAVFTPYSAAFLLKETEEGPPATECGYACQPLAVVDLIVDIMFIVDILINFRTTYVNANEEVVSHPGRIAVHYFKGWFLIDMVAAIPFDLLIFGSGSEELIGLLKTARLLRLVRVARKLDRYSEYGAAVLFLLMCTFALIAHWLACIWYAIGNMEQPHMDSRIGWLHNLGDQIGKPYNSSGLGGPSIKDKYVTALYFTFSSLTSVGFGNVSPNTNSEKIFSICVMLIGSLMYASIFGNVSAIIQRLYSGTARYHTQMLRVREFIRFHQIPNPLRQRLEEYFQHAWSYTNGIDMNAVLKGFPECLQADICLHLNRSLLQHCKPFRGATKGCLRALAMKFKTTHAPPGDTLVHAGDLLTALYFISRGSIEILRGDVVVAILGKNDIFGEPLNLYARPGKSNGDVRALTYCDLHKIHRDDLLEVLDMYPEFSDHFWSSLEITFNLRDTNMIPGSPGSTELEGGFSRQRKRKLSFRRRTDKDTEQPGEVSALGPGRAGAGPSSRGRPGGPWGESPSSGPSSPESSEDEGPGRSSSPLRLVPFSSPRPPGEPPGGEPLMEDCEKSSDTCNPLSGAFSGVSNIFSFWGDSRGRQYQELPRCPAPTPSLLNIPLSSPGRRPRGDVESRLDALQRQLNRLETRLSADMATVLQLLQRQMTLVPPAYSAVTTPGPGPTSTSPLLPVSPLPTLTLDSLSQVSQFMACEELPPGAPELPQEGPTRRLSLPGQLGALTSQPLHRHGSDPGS

Series [2] has as its target purified recombinantly expressed human SSAO (Homo sapiens (Human), UniProt Q16853). Nature of the series: SSAO enzyme inhibition assay (HRP-coupled hydrogen peroxide detection or 14C-benzaldehyde detection, benzylamine substrate). The note with it: human recombinant SSAO, RT. In kind it is biochemical. The procedure, abridged:
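Human recombinant SSAO pre-incubated ~15 min with compound, room temperature. Radiometric format: 10 ug/ml enzyme, 40 uM 14C-benzylamine, 1 h, in PBS. IC50 by four-parameter fit.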

purified recombinantly expressed human SSAO, sequence (Q16853 29-763): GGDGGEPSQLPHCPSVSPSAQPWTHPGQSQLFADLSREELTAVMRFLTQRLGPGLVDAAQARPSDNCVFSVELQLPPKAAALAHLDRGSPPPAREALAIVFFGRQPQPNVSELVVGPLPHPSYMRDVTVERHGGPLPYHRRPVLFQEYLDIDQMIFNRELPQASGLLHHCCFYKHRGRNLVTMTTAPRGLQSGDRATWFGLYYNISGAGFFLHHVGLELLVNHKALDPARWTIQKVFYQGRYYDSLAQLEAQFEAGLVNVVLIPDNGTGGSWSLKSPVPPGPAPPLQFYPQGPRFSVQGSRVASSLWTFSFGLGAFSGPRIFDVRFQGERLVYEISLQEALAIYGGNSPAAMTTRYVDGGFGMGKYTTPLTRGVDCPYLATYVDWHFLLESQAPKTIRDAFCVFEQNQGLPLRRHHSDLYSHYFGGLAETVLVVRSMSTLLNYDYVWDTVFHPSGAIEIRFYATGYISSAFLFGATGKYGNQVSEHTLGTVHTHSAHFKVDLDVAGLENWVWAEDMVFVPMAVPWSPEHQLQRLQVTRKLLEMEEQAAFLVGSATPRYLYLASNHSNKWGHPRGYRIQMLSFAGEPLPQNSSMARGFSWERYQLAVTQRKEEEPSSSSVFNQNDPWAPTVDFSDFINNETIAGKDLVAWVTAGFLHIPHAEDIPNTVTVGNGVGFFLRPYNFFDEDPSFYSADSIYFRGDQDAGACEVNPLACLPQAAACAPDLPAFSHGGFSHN

On to `Fc1cnccc1-c1cc2ccncc2n1-c1ccc(Cl)cc1` [Example 152, 4-[1-(4-Chlorophenyl)-1H-pyrrolo[2,3-c]pyridin-2-yl]-3-fluoropyridine], for which the 50% inhibitory concentration (IC50) in series [1] is 1000 to 10000 nM; in series [2], 200 to 1200 nM.
The matching figures for `Clc1ccc(-n2c(-c3ccncc3Cl)cc3ccncc32)cc1` [Example 153, 3-Chloro-4-[1-(4-chlorophenyl)-1H-pyrrolo[2,3-c]pyridin-2-yl]pyridine]: 1000 to 10000 nM and 50 to 200 nM.

Source of the values: US10428066B2, “Imidazo[4,5-C]pyridine and pyrrolo[2,3-C]pyridine derivatives as SSAO inhibitors” (PROXIMAGEN, LLC, priority 2013, dated 2019).
